The source of these data is patent EP3807270B1, “NOVEL HETEROARYL HETEROCYCLYL COMPOUNDS FOR THE TREATMENT OF AUTOIMMUNE DISEASE” (F. Hoffmann-La Roche AG, priority 2018, dated 2019).

For one series, the target named is T1, hTLR9 (Homo sapiens, UniProt Q9NR96).
T1 sequence (Q9NR96 26-1032): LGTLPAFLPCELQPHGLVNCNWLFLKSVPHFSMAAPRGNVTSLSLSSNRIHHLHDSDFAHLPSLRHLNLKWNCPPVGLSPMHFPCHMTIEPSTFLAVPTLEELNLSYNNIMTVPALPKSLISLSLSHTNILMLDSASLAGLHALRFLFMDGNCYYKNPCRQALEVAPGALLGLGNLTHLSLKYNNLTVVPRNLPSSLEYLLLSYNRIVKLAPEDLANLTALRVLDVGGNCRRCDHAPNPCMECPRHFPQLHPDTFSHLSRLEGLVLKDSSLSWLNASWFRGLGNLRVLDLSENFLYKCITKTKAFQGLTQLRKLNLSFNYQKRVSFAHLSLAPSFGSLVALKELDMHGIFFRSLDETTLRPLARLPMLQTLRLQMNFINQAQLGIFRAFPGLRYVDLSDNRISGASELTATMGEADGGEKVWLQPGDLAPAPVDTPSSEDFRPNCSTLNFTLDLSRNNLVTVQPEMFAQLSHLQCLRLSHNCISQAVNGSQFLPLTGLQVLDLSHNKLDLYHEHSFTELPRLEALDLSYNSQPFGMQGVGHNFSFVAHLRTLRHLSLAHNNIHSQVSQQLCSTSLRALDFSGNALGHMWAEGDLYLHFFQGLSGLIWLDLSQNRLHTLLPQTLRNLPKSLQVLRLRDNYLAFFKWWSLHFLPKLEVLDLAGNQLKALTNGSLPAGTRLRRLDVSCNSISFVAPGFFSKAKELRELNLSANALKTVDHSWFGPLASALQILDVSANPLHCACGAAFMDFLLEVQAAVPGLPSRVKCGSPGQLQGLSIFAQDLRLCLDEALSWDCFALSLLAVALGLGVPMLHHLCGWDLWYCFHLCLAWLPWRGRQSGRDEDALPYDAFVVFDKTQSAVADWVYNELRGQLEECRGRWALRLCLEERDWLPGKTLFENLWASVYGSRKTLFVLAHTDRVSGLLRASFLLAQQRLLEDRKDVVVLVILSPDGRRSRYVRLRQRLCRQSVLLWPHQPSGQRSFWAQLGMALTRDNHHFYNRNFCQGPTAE
The series can be described thus: HEK293-Blue-hTLR-9 cells assay (SEAP reporter, ODN2006 stimulation). It counts as cell-based. Particulars: HEK293-Blue-hTLR9 cells, ODN2006, 20 hrs; read-out: HEK/hTLR9 IC50. The arrangement: host or cells: HEK293 (HEK-Blue). An outline of the steps: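 HEK293-Blue-hTLR9 cells (250,000-450,000 cells/mL) in DMEM with 10% FBS were treated with serially diluted compound (1% DMSO final) plus ODN2006 for 20 hrs at 37 °C. Supernatant SEAP activity was measured with QUANTI-Blue substrate for 2 hrs at 37 °C, reading absorbance at 620-655 nm.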

Series [1] is described as follows: Human microsome stability assay. It counts as in vitro ADME. Particulars: 1 µM test compound, 0.5 mg/mL liver microsomal protein, 37 °C. In short, it runs like this: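 Test compound at 1 µM was incubated with human liver microsomes (0.5 mg/mL protein) and an NADPH-regenerating system in 100 mM potassium phosphate, pH 7.4, at 37 °C. Samples were taken at 0–30 min and quenched with acetonitrile. Remaining compound was quantified by LC-MS/MS, with no-NADPH controls.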

Structures are written as SMILES.

`C[C@@H]1CN(c2ccc(C#N)c3nccnc23)C[C@H](CN2CCN(c3cc4c(cn3)[C@@H](C)NCC4)CC2)O1` (single isomer, unassigned) [Example 86]: the IC50 at hTLR9 amounted to 117 nM. Also, in series [1], the “Clearance of Human microsome” value is 7.69 mL/min/kg.

For `C[C@@H]1CN(c2ccc(C#N)c3nccnc23)C[C@H](CN2CCN(c3cc4c(cn3)CCN[C@@H]4C)CC2)O1` (single isomer, unassigned) [Example 87], the IC50 at hTLR9 turned out to be 97 nM. The “Clearance of Human microsome” value in series [1] was determined as 8.91 mL/min/kg.

Consider `C[C@@H]1CN(c2ccc(C#N)c3nccnc23)C[C@H](CN2CCN(c3cc4c(cn3)CCN[C@H]4C)CC2)O1` (single isomer, unassigned) [Example 88], for which the IC50 on hTLR9 is 73 nM.

For the compound `[2H]c1nc2c(C#N)ccc(N3C[C@H](CN4CCN(c5cc6c(cn5)[C@H](C)NCC6)CC4)O[C@H](C)C3)c2nc1[2H]` (single isomer, unassigned) [Example 94], on hTLR9, the IC50 turned out to be 71 nM.

With `[2H]c1nc2c(C#N)ccc(N3C[C@H](CN4CCN(c5cc6c(cn5)[C@@H](C)NCC6)CC4)O[C@H](C)C3)c2nc1[2H]` (single isomer, unassigned) [Example 95], on hTLR9, the IC50 is 103 nM. The “Clearance of Human microsome” value in series [1] turned out to be 7.13 mL/min/kg.

In the case of `[2H]c1nc2c(C#N)ccc(N3C[C@H](CN4CCN(c5ccc6c(n5)CN[C@H]6C)CC4)O[C@H](C)C3)c2nc1[2H]` (single isomer, unassigned) [Example 96], the IC50 on hTLR9 worked out at 116 nM. Further, the “Clearance of Human microsome” value in series [1] worked out at 6.23 mL/min/kg.

For `[2H]c1nc2c(C#N)ccc(N3C[C@H](CN4CCN(c5ccc6c(n5)CN[C@@H]6C)CC4)O[C@H](C)C3)c2nc1[2H]` (single isomer, unassigned) [Example 97], the IC50 on hTLR9 amounted to 110 nM. Further, the “Clearance of Human microsome” value in series [1] is recorded as 6.15 mL/min/kg.

`[2H]c1ccc2c(N3C[C@H](CN4CCN(c5ccc6c(n5)CN[C@@H]6C)CC4)O[C@H](C)C3)ccc(C#N)c2n1` (single isomer, unassigned) [Example 98]: the IC50 on hTLR9 was 91 nM. Moreover, the “Clearance of Human microsome” value in series [1] came to 8.02 mL/min/kg.

On to `[2H]c1ccc2c(N3C[C@H](CN4CCN(c5ccc6c(n5)CN[C@H]6C)CC4)O[C@H](C)C3)ccc(C#N)c2n1` (single isomer, unassigned) [Example 99], for which, on hTLR9, the IC50 was found to be 69 nM. Besides, the “Clearance of Human microsome” value in series [1] was found to be 6.32 mL/min/kg.

Turning to `C[C@@H]1CN(c2ccc(C#N)c3ncccc23)C[C@H](CN2CCN(c3ccc4c(c3)CNCC4)CC2)O1` [Example 9, 5-[(2R,6S)-2-methyl-6-[[4-(1,2,3,4-tetrahydroisoquinolin-7-yl)piperazin-1-yl]methyl]morpholin-4-yl]quinoline-8-carbonitrile], on hTLR9, the IC50 came out at 77 nM. In addition, in series [1], the “Clearance of Human microsome” value is recorded as 6.74 mL/min/kg.

On to `C[C@@H]1CN(c2ccc(C#N)c3ncccc23)C[C@H](CN2CCN(c3cnc4c(c3)CNC4)CC2)O1` [Example 10, 5-[(2S,6R)-2-[[4-(6,7-dihydro-5H-pyrrolo[3,4-b]pyridin-3-yl)piperazin-1-yl]methyl]-6-methyl-morpholin-4-yl] quinoline-8-carbonitrile], for which the IC50 on hTLR9 amounted to 53 nM. Also, in series [1], the “Clearance of Human microsome” value was determined as 8.61 mL/min/kg.
